Counter-ions that a name gives are not always drawn. Like-named read-outs stand apart in the source and are kept apart here.
How the values were obtained:
[1] = Toxicity: 50% lethal dose in mice (p.o. and i.v.); conditions: mouse, in vivo
Description: The following 50% lethal doses were obtained after oral administration (p.o.) and intravenous administration (i.v.) of the substances to mice.

[2] = biological target: T1, isolated ductus deferens of rats (Rattus norvegicus, UniProt P43140); assay: In vitro α-adrenolytic activity on isolated ductus deferens; conditions: negative log of molar concentration requiring doubled norepinephrine concentration, read-out: pA2, α-blocking action towards norepinephrine on isolated ductus deferens (converted)
T1 construct: Norepinephrine causes contractions of the isolated ductus deferens of rats; from tissue; host or cells: isolated ductus deferens of rats
T1 sequence (P43140 1-466): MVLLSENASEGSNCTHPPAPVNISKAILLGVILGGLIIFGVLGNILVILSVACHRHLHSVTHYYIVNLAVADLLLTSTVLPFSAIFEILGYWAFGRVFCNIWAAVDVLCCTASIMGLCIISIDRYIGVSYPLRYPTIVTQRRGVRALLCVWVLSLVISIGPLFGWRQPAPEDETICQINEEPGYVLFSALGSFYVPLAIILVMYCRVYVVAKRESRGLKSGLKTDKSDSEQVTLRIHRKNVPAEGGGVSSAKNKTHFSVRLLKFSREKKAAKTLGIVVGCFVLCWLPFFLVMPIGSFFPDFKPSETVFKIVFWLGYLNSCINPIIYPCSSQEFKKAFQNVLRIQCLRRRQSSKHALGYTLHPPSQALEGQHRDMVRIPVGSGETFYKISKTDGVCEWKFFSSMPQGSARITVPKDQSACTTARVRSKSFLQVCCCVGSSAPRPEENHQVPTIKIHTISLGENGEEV
Description: (§1) 2.1. - In vitro α-adrenolytic activity
(§2) This was studied on the ductus deferens of rats and on the urethra of rabbits.
(§3) Norepinephrine causes contractions of the isolated ductus deferens of rats and the isolated urethra of rabbits. The presence of α-blocking substances in a bath containing the organ antagonizes these contractions; the use of increasing concentrations of α-blocking substances makes it possible to calculate:
the pA2 of the compounds on the ductus deferens of rats, the pA2 being the negative logarithm of that molar concentration of the product in the presence of which the concentration of norepinephrine has to be doubled in order to obtain the same effect as in the absence of the product; and […]

[3] = system: isolated urethra of rabbits; assay: In vitro α-adrenolytic activity on isolated urethra; conditions: rabbit; negative log of molar concentration halving norepinephrine contraction-inducing activity
Description: as §1, §2, §3
the pD'2 of the compounds on the urethra of rabbits, the pD'2 being the negative logarithm of that molar concentration of the product in the presence of which the contraction-inducing activity of norepinephrine is halved.

[4] = system: toxicity of norepinephrine; assay: In vivo adrenolytic activity: protection against norepinephrine-induced death in rats; conditions: Rattus norvegicus, po; for responders at 50 mg/kg / responders at 25 mg/kg: 0.5 h, 30 min before i.v. norepinephrine 0.4 mg/kg; for responders at 50 mg/kg: 50 mg/kg p.o.; for responders at 25 mg/kg: 25 mg/kg p.o.
Procedure: Norepinephrine injected intravenously in high doses causes the death of 100% of the animals within 15 minutes of being injected. The cause of death is pulmonary edema due to the arterial hypertension induced by stimulation of the adrenergic receptors. The oral administration of α-adrenolytic substances before-hand enables the toxicity of norepinephrine to be reduced. The products are administered orally at times varying between 30 minutes and 6 hours before the intravenous injection (i.v.) of norepinephrine (0.4 mg/kg).

[5] = system: arterial hypertension induced by norepinephrine; assay: In vivo α-blocking activity in anesthetized rabbits: arterial pressure; conditions: Oryctolagus cuniculus, iv, norepinephrine-induced arterial pressure increase, read-out: ID50 with regard to arterial hypertension
Description: (§4) The "in vivo" α-blocking activity in terms of the urethral and vascular pressures in anesthetized rabbits was investigated by intravenous administration of the products B 1007, B 1024, B 1058, B 1125 and B 1134.
(§5) The intravenous injection of norepinephrine causes a dose-dependent increase in the arterial and urethral pressures in rabbits. α-Blocking substances injected intravenously antagonize these pressure increases as a function of dose. The 50% inhibitory dose (ID50), defined as being the dose of product which causes a 50% […] in the effects of norepinephrine on the arterial and urethral pressures, is calculated.

[6] = system: urethral hypertension induced by norepinephrine; assay: In vivo α-blocking activity in anesthetized rabbits: urethral pressure; conditions: Oryctolagus cuniculus, iv, norepinephrine-induced urethral pressure increase, read-out: ID50 with regard to urethral hypertension
Description: as §4, §5

[7] = system: arterial pressure; assay: Urethral specificity in anesthetized dogs: arterial hypotension; format: in vivo; conditions: i.v., dose causing 20% arterial hypotension
Description: (§6) The effect of products B 1007, B 1024, B 1125 and B 1134, injected intravenously, on the neurogenic urethral hypertension and the arterial pressure was investigated on anesthetized dogs.
(§7) α-Blocking substances antagonize these increases in urethral pressure as a function of dose and cause arterial hypotension through a blocking action on the vascular receptors.
(§8) The dose which causes a 50% inhibition of the effects of stimulation of the hypogastric nerve on the urethral pressure (ID50) and the dose which causes a 20% arterial hypotension (ED20) are calculated.

[8] = system: neurogenic urethral hypertension (stimulation of the hypogastric nerve); assay: Urethral specificity in anesthetized dogs: neurogenic urethral hypertension; format: in vivo; conditions: Canis lupus familiaris, iv, 50% inhibition of effect of hypogastric nerve stimulation on urethral pressure, read-out: Neurogenic urethral hypertension ID50
Description: as §6
Electrical stimulation of the hypogastric nerve causes an increase in the urethral pressure by releasing norepinephrine from the sympathetic fibers of the nerve.
as §7, §8

[9] = intravenous, read-out: LD50 i.v.

Row | SMILES | LD50 [1, 9] [mg/kg] | LD50 ([1]; oral, read-out: LD50 p.o.) [mg/kg] | Kb [2] [nM] | pD'2, α-blocking action towards norepinephrine on isolated urethra [3] | responders at 50 mg/kg [4] [%] | ED50 [5] [mg/kg] | ED50 [6] [mg/kg] | Arterial hypotension ED20 [7] [mg/kg] | ED50 [8] [mg/kg] | responders at 25 mg/kg [4] [%] | responders at 100 mg/kg ([4]; 100 mg/kg p.o., 4 h before i.v. norepinephrine 0.4 mg/kg) [%]
1 | CC(=O)Oc1cc(C(C)C)c(OCCN(C)C)cc1C [Thymoxamine, reference compound] | 72.5 | 300 | 56.2 | 7.03 | 80 | 2.72 | 0.5 | 0.27 | 0.09 | – | –
2 | CCC(=O)Oc1cc(C(C)C)c(OCCN2CCCC2)cc1C [B 1125] | – | ~300 | 72.4 | 6.25 | – | 5.95 | 0.36 | 12 | 0.09 | 60 | –
3 | Cc1cc(OCCN2CCCC2)c(C(C)C)cc1O [B 1058, 2-hydroxy-5-[2-(pyrrolidin-1-yl)ethoxy]-p-cymene hydrochloride] | 17 | 80 | 66.1 | 6.69 | 90 | 1.22 | 0.13 | – | – | – | –
4 | CCCC(=O)Oc1cc(C(C)C)c(OCCN2CCCC2)cc1C [B 1132, 2-butyryloxy-5-[2-(pyrrolidin-1-yl)-ethoxy]-p-cymene hydrochloride] | – | ~500 | 44.7 | 6.0 | 90 | – | – | – | – | – | –
5 | CCCCCC(=O)Oc1cc(C(C)C)c(OCCN2CCCC2)cc1C [B 1131] | – | ~550 | 105 | 6.12 | 60 | – | – | – | – | – | –
6 | Cc1ccc(C(C)C)c(OCCN2CCCC2)c1 [B 1007, 3-[2-(pyrrolidin-1-yl)ethoxy]-p-cymene hydrochloride] | 75 | 330 | 182 | 6.88 | 60 | 7.63 | 0.34 | 2 | 0.35 | – | –
7 | CC(=O)Oc1cc(C(C)C)c(OCCN2CCCC2)cc1C [B 1024, 2-acetoxy-5-[2-(pyrrolidin-1-yl)ethoxy]-p-cymene hydrochloride] | 18 | 100 | 105 | 6.38 | – | 4.14 | 0.23 | 8 | 0.07 | 70 | –
8 | CCCCCCCCCC(=O)Oc1cc(C(C)C)c(OCCN2CCCC2)cc1C [B 1134] | 36 | ~400 | 269 | 6.23 | – | 6.17 | 0.48 | 30 | 0.11 | – | 100

Reference: US4795758A, “5-[2-(pyrrolidin-1-yl)ethoxy]-p-cymene derivatives, the process for the preparation of the said derivatives and drugs in which the said derivatives are present” (priority 1987, dated 1989)
